Source: ChEMBL document CHEMBL5252544, “Synthesis and evaluation of biological activities of vibsanin A analogs” (Bioorg Med Chem Lett, 2017)
Calls of active or inactive are those of the source. The calls are words filed in the database; no cut-off is given here.

What was measured:
[1] = target: T1, Protein kinase C (PKC) (Homo sapiens) (UniProt O94806+P41743+P17252+P05129+Q05655+P05771+Q05513+Q02156+P24723+Q15139+Q04759); test: Activation of PKC in human THP-1 cells assessed as increase in ERK phosphorylation at 0.1 to 10 uM incubated for 15 mins by immunoblotting analysis; assay type: cell-based; conditions: dose 0.1-10 µM
[2] = target: T1, Protein kinase C (PKC) (Homo sapiens); test: Activation of PKC in human THP-1 cells assessed as increase in ERK phosphorylation incubated for 15 mins by immunoblotting analysis; assay type: cell-based; conditions: filed as activator, dose 0.1-10 µM
[3] = tested on: THP-1; test: Induction of monocytic differentiation in human THP-1 cells assessed as high vacuolated cytoplasm at 10 uM measured after 72 hrs by giemsa staining based microscopic analysis; assay type: functional, cell-based
[4] = tested on: HL-60; test: Activation of ERK in human HL-60 cells assessed as increase in cell differentiation; assay type: cell-based; conditions: filed as activator
[5] = tested on: THP-1; test: Induction of monocytic differentiation in human THP-1 cells assessed as decrease in nuclear to cytoplasmic ratio at 10 uM measured after 72 hrs by giemsa staining based microscopic analysis; assay type: functional, cell-based
[6] = tested on: THP-1; test: Induction of monocytic differentiation in human THP-1 cells assessed as increase in cell size at 10 uM measured after 72 hrs by giemsa staining based microscopic analysis; assay type: functional
[7] = tested on: THP-1; test: Induction of cell differentiation in human THP-1 cells; assay type: functional, cell-based
[8] = tested on: THP-1; test: Cytotoxicity against human THP-1 cells by trypan blue staining based microscopic analysis; assay type: functional, cell-based
[9] = target: T1, Protein kinase C (PKC) (Homo sapiens); test: Activation of PKC in human THP-1 cells assessed as increase in ERK phosphorylation at 100 nM incubated for 15 mins by immunoblotting analysis; assay type: cell-based; conditions: filed as activator
[10] = target: T1, Protein kinase C (PKC) (Homo sapiens); test: Activation of PKC in human THP-1 cells assessed as increase in ERK phosphorylation at 10 uM pretreated with PMA for 24 hrs followed by compound addition and measured after 15 mins by immunoblotting analysis; assay type: cell-based
[11] = tested on: THP-1; test: Induction of morphological changes in human THP-1 cells assessed as loss of cell circularity at 10 uM measured after 72 hrs by microscopic analysis; assay type: functional, cell-based

SMILES	Activity [1]	Activity [2]	Activity [3]	Activity [4]	Activity [5]	Activity [6]	further results
C=C1CC[C@H]2O[C@@]2(C)[C@H](OC(=O)C=C(C)C)/C=C/[C@@](C)(CCC=C(C)C)C[C@H]1O	inactive						
CC(C)=CCC[C@]1(C)/C=C/[C@@H](OC(=O)C=C(C)C)[C@]2(C)O[C@@H]2CC/C(CO)=C\C1		Dose-Dependent Effect	Active	Active	Active	Active	
C=C1CC[C@H]2O[C@@]2(C)[C@H](OC(=O)C=C(C)C)/C=C/[C@@](C)(CCC=C(C)C)CC1=O	inactive						Activity [7]: inactive; Activity [8]: Active
CCCCCCCCCCCCCC(=O)O[C@@H]1[C@@H](C)[C@@]2(O)[C@@H](C=C(CO)C[C@]3(O)C(=O)C(C)=C[C@@H]23)[C@@H]2C(C)(C)[C@]12OC(C)=O							Activity [9]: Active
CC(C)=CCC[C@]1(C)/C=C/[C@@H](OC(=O)C=C(C)C)[C@]2(C)O[C@@H]2CC/C(C=O)=C\C1		Dose-Dependent Effect	Active	Active	Active	Active	Activity [10]: inactive; Activity [11]: Active
C=C(I)CC[C@H]1O[C@@]1(C)[C@@H](/C=C/[C@](C)(CC=O)CCC=C(C)C)OC(=O)C=C(C)C	inactive						
